In the supplement of paper PMC11061612:

What was measured:
Assay in all cases: combination Emax (second highest fraction inhibited in the dose matrix, 72 h); higher = more inhibition; extreme values may be limits of the assay
[1] = system: NCI-H2461 (Mesothelioma)
Method in brief: (§1)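 Cell lines in DMEM/F12 or RPMI with 10% FBS were plated in 1536-well plates, held 24 hours at 37°C, 5% CO2, then given two-drug dose matrices for 72 hours (DMSO typically 0.2%). Viability was read by CellTiter-Glo 2.0 luminescence and scaled as inhibition from 0 (vehicle wells) to 1 (blank wells). Combination Emax is the second-highest inhibition in the matrix; Bliss excess is observed combination effect minus expected EA + EB − EA·EB, EA and EB being single-agent effects.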

[2] = system: CAL-54 (Kidney Carcinoma)
Method in brief: as §1

[3] = system: RT-112 (Bladder Carcinoma)
Method in brief: as §1

[4] = system: HMV-II (Melanoma)
Method in brief: as §1

[5] = system: RPMI-6666 (Non-Cancerous)
Method in brief: as §1

[6] = system: EN (Endometrial Carcinoma)
Method in brief: as §1

[7] = system: SH-4 (Melanoma)
Method in brief: as §1

[8] = system: 8305C (Thyroid Gland Carcinoma)
Method in brief: as §1

[9] = system: Mewo (Melanoma)
Method in brief: as §1

[10] = system: NCI-H28 (Mesothelioma)
Method in brief: as §1

[11] = system: RKO (Colorectal Carcinoma)
Method in brief: as §1

[12] = system: MDA-MB-468 (Breast Carcinoma)
Method in brief: as §1

[13] = system: HARA (Squamous Cell Lung Carcinoma)
Method in brief: as §1

[14] = system: Hs-633T (Other Solid Carcinomas)
Method in brief: as §1

[15] = system: SW1271 (Small Cell Lung Carcinoma)
Method in brief: as §1

[16] = system: CAPAN-1 (Pancreatic Carcinoma)
Method in brief: as §1

[17] = system: NCI-H69 (Small Cell Lung Carcinoma)
Method in brief: as §1

[18] = system: PCI-30 (Head and Neck Carcinoma)
Method in brief: as §1

[19] = system: HO-1-u-1 (Oral Cavity Carcinoma)
Method in brief: as §1

[20] = system: LoVo (Colorectal Carcinoma)
Method in brief: as §1

Structure (SMILES)	combination Emax [1]	combination Emax [2]	combination Emax [3]	combination Emax [4]	combination Emax [5]	combination Emax [6]	combination Emax [7]	combination Emax [8]	combination Emax [9]	combination Emax [10]	combination Emax [11]	combination Emax [12]	combination Emax [13]	combination Emax [14]	combination Emax [15]	combination Emax [16]	combination Emax [17]	combination Emax [18]	combination Emax [19]	combination Emax [20]
N#Cc1cnc(Nc2cc(NC[C@H]3CNCCO3)c(C(F)(F)F)cn2)cn1 [SRA737] + CCc1c2c(nc3ccc(O)cc13)-c1cc3c(c(=O)n1C2)COC(=O)[C@]3(O)CC [SN-38] (first compound max 10 µM, 7x7, partner max 0.3 µM)	0.638	0.793	0.95	0.546	0.915	0.678	0.518	0.615	0.679	0.516	0.925	0.791	0.898	0.831	0.608	0.758	0.82	0.843	0.924	0.775
CN(CCO)CC[C@H](CSc1ccccc1)Nc1ccc(S(=O)(=O)NC(=O)c2ccc(N3CCC([C@@H](O)c4ccccc4-c4ccc(Cl)cc4)CC3)cc2)cc1S(=O)(=O)C(F)(F)F [AZD4320] + Nc1ccn([C@@H]2O[C@H](CO)[C@@H](O)C2(F)F)c(=O)n1 [Gemcitabine] (first compound max 1 µM, 7x7, partner max 0.3 µM)	0.641	0.838	0.507	0.619	0.985	0.337	0.642	0.625	0.451	0.797	0.928	0.799	0.8	0.992	0.872	0.828	0.946	0.743	0.563	0.7
C=CCn1c(=O)c2cnc(Nc3ccc(N4CCN(C)CC4)cc3)nc2n1-c1cccc(C(C)(C)O)n1 [AZD1775] + Nc1ccn([C@@H]2O[C@H](CO)[C@@H](O)C2(F)F)c(=O)n1 [Gemcitabine] (first compound max 1 µM, partner max 0.3 µM)	0.63	0.787	0.956	0.632	0.917	0.581	0.577	0.574	0.583	0.685	0.882	0.733	0.912	0.863	0.617	0.697	0.611	0.677	0.693	0.808
Cc1c2c(nn1C)CSCc1cc(n(C)n1)CSc1cc(c3ccccc3c1)OCCCc1c(C(=O)O)n(C)c3c-2c(Cl)ccc13 [AZD5991] + Nc1ccn([C@@H]2O[C@H](CO)[C@@H](O)C2(F)F)c(=O)n1 [Gemcitabine] (first compound max 1 µM, 7x7, partner max 0.3 µM)	0.553	0.724	0.834	0.595	0.947	0.602	0.495	0.374	0.465	0.684	0.936	0.707	0.81	0.837	0.604	0.608	0.457	0.559	0.378	0.713
Cc1c2c(nn1C)CSCc1cc(n(C)n1)CSc1cc(c3ccccc3c1)OCCCc1c(C(=O)O)n(C)c3c-2c(Cl)ccc13 [AZD5991] + CC(=O)O[C@H]1C(=O)[C@@]2(C)[C@H]([C@H](OC(=O)c3ccccc3)[C@]3(O)C[C@H](OC(=O)[C@H](O)[C@@H](NC(=O)c4ccccc4)c4ccccc4)C(C)=C1C3(C)C)[C@]1(OC(C)=O)CO[C@@H]1C[C@@H]2O [Paclitaxel] (first compound max 1 µM, 7x7, partner max 3 µM)	0.443	0.584	1	0.598	0.979	0.878	0.472	0.732	0.692	0.469	1	0.79	0.982	0.95	0.472	0.681	0.89	0.394	0.752	0.655
C[C@@H](Oc1cc(-c2cnn(C3CCNCC3)c2)cnc1N)c1c(Cl)ccc(F)c1Cl [Crizotinib] + Cn1cnc2c(F)c(Nc3ccc(Br)cc3Cl)c(C(=O)NOCCO)cc21 [Selumetinib] (first compound max 10 µM, 7x7, partner max 10 µM)	0.56	0.565	0.819	0.934	0.672	0.401	0.91	0.801	0.541	0.438	0.982	0.673	0.59	0.896	0.896	0.571	0.621	0.238	0.639	0.557
O=C(c1cc(Cc2n[nH]c(=O)c3ccccc23)ccc1F)N1CCN(C(=O)C2CC2)CC1 [Olaparib] + COc1nnc2ccc(N3CCC(c4ccc(OCCN5CCN(C)C(=O)[C@H]5C)cc4)CC3)nn12 [AZD5153] (first compound max 10 µM, 7x7, partner max 1 µM)	0.42	0.737	0.157	0.474	0.633	0.347	0.514	0.495	0.417	0.422	0.672	0.503	0.582	0.612	0.573	0.418	0.488	0.251	0.454	0.436
O=C(c1cc(Cc2n[nH]c(=O)c3ccccc23)ccc1F)N1CCN(C(=O)C2CC2)CC1 [Olaparib] + Cc1c2c(nn1C)CSCc1cc(n(C)n1)CSc1cc(c3ccccc3c1)OCCCc1c(C(=O)O)n(C)c3c-2c(Cl)ccc13 [AZD5991] (first compound max 10 µM, 7x7, partner max 1 µM)	0.127	0.208	0.672	0.0925	0.794	0.476	0.155	0.311	0.161	0.118	0.137	0.42	0.277	0.184	0.131	0.366	0.239	0.103	0.239	0.162
CN(CCO)CC[C@H](CSc1ccccc1)Nc1ccc(S(=O)(=O)NC(=O)c2ccc(N3CCC([C@@H](O)c4ccccc4-c4ccc(Cl)cc4)CC3)cc2)cc1S(=O)(=O)C(F)(F)F [AZD4320] + CC(=O)O[C@H]1C(=O)[C@@]2(C)[C@H]([C@H](OC(=O)c3ccccc3)[C@]3(O)C[C@H](OC(=O)[C@H](O)[C@@H](NC(=O)c4ccccc4)c4ccccc4)C(C)=C1C3(C)C)[C@]1(OC(C)=O)CO[C@@H]1C[C@@H]2O [Paclitaxel] (first compound max 1 µM, 7x7, partner max 3 µM)	0.75	0.773	0.991	0.853	1	0.757	0.531	0.846	0.78	0.823	1	0.881	0.999	1	0.927	0.874	0.991	0.875	0.965	0.746
Cc1cc2ncnn2cc1Nc1ncc2c(n1)n(C1CCOCC1)c(=O)n2C [AZD7648] + COc1cc([C@@H]2c3cc4c(cc3[C@@H](O[C@@H]3O[C@@H]5CO[C@@H](C)O[C@H]5[C@H](O)[C@H]3O)[C@H]3COC(=O)[C@H]23)OCO4)cc(OC)c1O [Etoposide] (first compound max 10 µM, 7x7, partner max 10 µM)	0.553	0.731	0.798	0.655	0.958	0.481	0.492	0.465	0.71	0.425	0.829	0.657	0.627	0.842	0.475	0.492	0.67	0.553	0.866	0.704
C[C@@H](Oc1cc(-c2cnn(C3CCNCC3)c2)cnc1N)c1c(Cl)ccc(F)c1Cl [Crizotinib] + CC1=C(C(=CC=C1)Cl)NC(=O)C2=CN=C(S2)NC3=CC(=NC(=N3)C)N4CCN(CC4)CCO [Dasatinib] (first compound max 10 µM, 7x7, partner max 2 µM)	0.594	0.888	0.974	0.768	0.686	0.389	0.556	0.843	0.481	0.772	0.771	0.776	0.757	1	0.714	0.285	0.771	0.721	0.863	0.505
CC1(C)CCC(CN2CCN(c3ccc(C(=O)NS(=O)(=O)c4ccc(NCC5CCOCC5)c([N+](=O)[O-])c4)c(Oc4cnc5[nH]ccc5c4)c3)CC2)=C(c2ccc(Cl)cc2)C1 [Venetoclax] + CS(=O)(=O)CCNCc1ccc(-c2ccc3ncnc(Nc4ccc(OCc5cccc(F)c5)c(Cl)c4)c3c2)o1 [Lapatinib] (first compound max 1 µM, 7x7, partner max 10 µM)	0.268	0.52	0.146	0.519	0.55	0.288	0.0973	0.356	0.176	0.362	0.325	0.635	0.584	0.213	0.373	0.261	0.724	0.167	0.673	0.486
